One molecule from patent US20170181971A1, “Nanoparticle- and Drug-Containing Polymersomes for Medical Applications” (Northeastern University, priority 2014, published 2017) can be followed below.

This experiment relates to ampicillin-resistant E. coli. As to the kind of experiment: Bacterial growth curve (OD600 for 24 hours) after treatment. Type of experiment: cell-based. How it is done: Bacteria transformation. First, an overnight suspension of E. coli cells (strain K-12 HB101; Bio-Rad, Hercules, Calif.) was pelleted by centrifugation and re-suspended in 250 μL of cold 50 mM calcium chloride (Sigma-Aldrich, St. Louis, Mo.) and placed in an ice bath. After 15 minutes on ice, 10 μg of the plasmid DNA was added, and the cells were returned to the ice bath for an additional 15 minutes. The cells were then heat shocked by placing them in a 42° C. water bath for exactly 45 seconds and then rapidly transferring them back to the ice bath for 2 minutes. This solution was then mixed with 750 μL of Lysogeny broth (LB, Sigma-Aldrich, St. Louis, Mo.). Finally, the complete transformed bacteria solution was streaked for inoculation on a LBagar plate containing 100 μg mL−1 of ampicillin and allowed to incubate overnight at 37° C.
Bacterial interactions. For each experimental trial, a single bacterial colony was selected and grown overnight in LB on a shaking incubator set at 200 rpm and 37° C. […] 100 μL of the bacterial suspension was then combined with varying AgPs treatment concentrations or controls in a 96 well plate. The final treatment volume in each well was brought up to 100 μL using 0.01 M PBS (e.g. 100 μL treatment +0 μL PBS, 90 μL treatment+10 μL PBS, 80 μL treatment+20 μL PBS, etc.). Control treatments were given 100 μL of PBS to keep the media dilution consistent. […]

SMILES strings stand for the structures.

`CC1(C)S[C@@H]2[C@H](NC(=O)[C@H](N)c3ccccc3)C(=O)N2[C@H]1C(=O)O` [free ampicillin, ampicillin]: the “bacteriostatic action (delay in time to reach exponential growth phase)” value (10^6 CFU mL^−1, OD600 for 24 hours) is on record as “no bacteriostatic effect”. Further, under “ampicillin at 200 μg mL^−1, FIG. 7G”, the “difference in bacterial growth between control treatments (incl. PBS)” value is reported as “no significant differences”.
